Reference: US20260306490A1, “PIM1 INHIBITOR FOR TREATING MYELOPROLIFERATIVE NEOPLASMS” (Sumitomo Pharma America, Inc., priority 2022, published 2026)
Where two headings read alike, the source gives them in different places.

How the values were obtained:
PIM2 = conditions: cited from earlier work
PIM3 = conditions: cited from earlier work
R/R AML = conditions: cited from earlier work
PIM1 = conditions: cited from earlier work
Solid tumor = conditions: n = 35; cited from earlier work
[1] = tested on: hematology parameters (platelet counts); test: CGLP preclinical dog study, hematology parameters; assay type: in vivo
MF patients = conditions: cited from earlier work
R/R MF = conditions: cited from earlier work
R/R MM = conditions: n = 79; cited from earlier work
[2] = tested on: human erythroid progenitors (CFU-E, BFU-E); test: Colony forming cell assay, human erythroid progenitor (CFU-E, BFU-E) proliferation; assay type: cell-based; conditions: 336 h, single agent, 14 days, CFU-E and BFU-E
Method: (§1) Clonogenic progenitors of human erythroid (CFU-E, BFU-E), granulocyte-monocyte (CFU-GM), and multipotential (CFU-GEMM) lineages were assessed in a semi-solid methylcellulose-based media formulation containing rhIL-3 (10 ng/mL), rhGM-SCF (10 ng/mL), rhSCF (50 ng/mL), and Epo (3 U/mL).
(§2) In addition, 5-FU was evaluated at 1.0, 0.1 and 0.01 μg/mL as a positive control for toxicity.
(§3) Normal human bone marrow light density cells (lot #0210901), derived from normal bone marrow, (Lonza, Maryland) and qualified at ReachBio, were stored at −152° C. until required for the assay. On the day of the experiment, the cells were thawed rapidly, diluted in 10 mL of Iscove's modified Dulbecco's medium containing 10% fetal bovine serum (IMDM+10% FBS) and washed by centrifugation (approximately 1500 r.p.m. for 10 minutes at room temperature). The supernatant was discarded and the cell pellets were resuspended in a known volume of IMDM+10% FBS. A cell count (3% glacial acetic acid) and viability assessment (trypan blue exclusion test) was performed for the bone marrow sample.
Clonogenic progenitors of human megakaryocyte (CFU-Mk) were assessed in a collagen-based media formulation containing rhIL-3 (10 ng/mL), rhIL-6 (10 ng/mL), and Tpo (50 ng/mL). Clonogenic progenitors of the human erythroid (CFU-E and BFU-E), myeloid (CFU-GM), and megakaryocyte (CFU-Mk) lineages were set up in the media formulations described above. Individually, the test compounds were added to the medium to give the final desired concentrations (10, 3.33, 1, 0.333, 0.1, 0.0333, 0.01 and 0.00333 μM). […]
(§4) Human myeloid and erythroid progenitor assays were initiated at 1.2×10^4 cells per culture (lot #0210921) and the human megakaryocyte assays were initiated at 1.2×10^5 cells per culture (lot #0210921). Following 14 days in culture, erythroid and myeloid colonies were assessed microscopically in situ and scored by trained personnel. […] The colonies were assessed microscopically and scored by trained personnel and divided into the following categories based on size: CFU-Mk (3-20), CFU-Mk (21-49), and CFU-Mk (≥50).
(§5) Statistical analysis: The mean±standard deviation of three replicate cultures was calculated for both erythroid and myeloid progenitors. […]
(§6) Erythroid (CFU-E and BFU-E) and myeloid (CFU-GM) colony enumeration was performed by trained personnel. In addition, the distribution of colony types as well as general colony and cellular morphology was analyzed. The variance in colony number detected in replicate cultures was representative of the historical coefficient of variation for colony enumeration using these types of assays. The number and distribution of colonies detected in the solvent control (0.1% DMSO for single agents) was no different from the standard control (containing no compound and no DMSO). […]

[3] = tested on: human myeloid progenitors (CFU-GM); test: Colony forming cell assay, human myeloid (granulocyte-monocyte, CFU-GM) progenitor proliferation; assay type: cell-based; conditions: single agent; for IC50: Homo sapiens, 336 h, 14 days, CFU-GM; for concentrations at which myeloid progenitor proliferation was (significantly, additionally) inhibited: vs 0.1% DMSO solvent control, p<0.01
Method: as §1, §2, §3
(§7) Clonogenic progenitors of human megakaryocyte (CFU-Mk) were assessed in a collagen-based media formulation containing rhIL-3 (10 ng/mL), rhIL-6 (10 ng/mL), and Tpo (50 ng/mL). Clonogenic progenitors of the human erythroid (CFU-E and BFU-E), myeloid (CFU-GM), and megakaryocyte (CFU-Mk) lineages were set up in the media formulations described above. Individually, the test compounds were added to the medium to give the final desired concentrations (10, 3.33, 1, 0.333, 0.1, 0.0333, 0.01 and 0.00333 μM). […] Solvent control cultures (containing no compound but 0.1% DMSO) as well as standard controls (containing no compound and no DMSO) were also initiated. Once introduced into the matrices, the tubes were vortexed to ensure an equal distribution throughout.
(§8) Human myeloid and erythroid progenitor assays were initiated at 1.2×10^4 cells per culture (lot #0210921) and the human megakaryocyte assays were initiated at 1.2×10^5 cells per culture (lot #0210921). Following 14 days in culture, erythroid and myeloid colonies were assessed microscopically in situ and scored by trained personnel. The colonies were divided into the following categories based on size and morphology: CFU-E, BFU-E, CFU-GM, and CFU-GEMM. The human megakaryocyte cultures were transferred from the 35 mm dishes to labeled glass slides, fixed with methanol/acetone fixative, and then stained with anti-human CD41 antibody and an alkaline phosphate detection system according to manufacturers' instructions. The colonies were assessed microscopically and scored by trained personnel and divided into the following categories based on size: CFU-Mk (3-20), CFU-Mk (21-49), and CFU-Mk (≥50).
(§9) Statistical analysis: The mean±standard deviation of three replicate cultures was calculated for both erythroid and myeloid progenitors. Two-tailed standard t-tests were performed to assess if there was a difference in the number of colonies generated between solvent control and treated cultures. Due to the potential subjectivity of colony enumeration, a p value of less than 0.01 is deemed significant. To calculate the concentration of 50% inhibition of colony growth (IC50) for each compound, a dose response curve was generated plotting the log of the compound concentration versus the percentage of control colony growth using GraphPad Prism 9 software.
as §6

[4] = tested on: human megakaryocyte progenitors (CFU-Mk); test: Colony forming cell assay, human megakaryocyte progenitor (CFU-Mk) proliferation; assay type: cell-based; conditions: for IC50: Homo sapiens, read-out: IC50, total CFU-Mk (megakaryocyte progenitor proliferation)
Method: as §2, §3, §7, §8, §9
Other than the test compounds being combined, the only change from the method in Example 1 was a 0.2% DMSO solvent control instead of 0.1% DMSO. The results are provided in FIGS. 2A-4C (FIGS. 2A-2C are human megakaryocytes (CFU-MK), FIGS. 3A-3C are human erythroid (CFU-E, BFU-E), and FIGS. 4A-4C are human granulocyte-monocyte (CFU-GM).

[5] = tested on: human myeloid, erythroid and megakaryocyte progenitors; test: Colony forming cell assays taken together (erythroid, myeloid, megakaryocyte progenitors); assay type: cell-based; conditions: single agents compared
Method: as §1, §2
Normal human bone marrow light density cells (lot #0210901), derived from normal bone marrow, (Lonza, Maryland) and qualified at ReachBio, were stored at −152° C. until required for the assay. […]
Clonogenic progenitors of human megakaryocyte (CFU-Mk) were assessed in a collagen-based media formulation containing rhIL-3 (10 ng/mL), rhIL-6 (10 ng/mL), and Tpo (50 ng/mL). […]
as §4, §5

[6] = read-out: Preclinical IC50, PIM2
[7] = read-out: Preclinical IC50, PIM3
[8] = read-out: Preclinical IC50, PIM1
[9] = JAKARTA, monotherapy 400 mg QD, N = 96
[10] = R/R AML (n = 30), Other (n = 9)
[11] = ≥50 × 10^9/L PLT, regimen RUX+Paraclisib
[12] = MOMENTUM, monotherapy 200 mg QD, N = 195
[13] = PERSIST 2, monotherapy 200 mg BID, N = 106
[14] = COMFORT 1, monotherapy 5-25 mg BID, N = 155

## N[C@@H]1CCCN(c2c(/C=C3\SC(=O)NC3=O)cccc2-c2ccccc2)C1 [AZD1208]
PIM2; [6]
  IC50: […]
PIM3; [7]
  IC50: 1.9 nM
R/R AML; R/R AML, n = 32
  Efficacy, circulating blasts (in several patients): response, reduction
  Hem AE, Febrile neutropenia: (28%)
  Non-hem AE, diarrhea: diarrhea (44%),
  Non-hem AE, nausea: Nausea (47%)
  Non-hem AE, pneumonia: pneumonia (19%)
  Non-hem AE, vomiting: vomiting (31%),
PIM1; [8]
  IC50: […]
Solid tumor
  Efficacy, stable disease for ≥6 weeks: ≥6 weeks in 13 patients
  Hem AE, Anemia: Anemia (51%),
  Hem AE, Thrombocytopenia: (14-26%)
  Hem AE, WBC decreased: WBC decreased (26%)
  Non-hem AE, diarrhea: Diarrhea (83%),
  Non-hem AE, nausea: nausea (74%)
  Non-hem AE, vomiting: vomiting (54%),

## CN1CCC(CNc2ccc3ncc(-c4cccc(OC(F)(F)F)c4)n3n2)CC1 [Compound (2)]
PIM2; unit inferred, read-out: PIM2 IC50
  IC50: 980 nM
PIM3; unit inferred, read-out: PIM3 IC50
  IC50: 20 nM
[1]; 10 mg/kg/day, either sex
  hematology parameters: not considered to be altered
[1]; 30 mg/kg/day, females
  platelet counts (PLT) increase: 12.1%
[1]; 30 mg/kg/day, males
  platelet counts (PLT) increase: 16.5%
[1]; 90 mg/kg/day, females
  platelet counts (PLT) increase: 26.3%
[1]; 90 mg/kg/day, males
  platelet counts (PLT) increase: 20%
PIM1; unit inferred, read-out: PIM1 IC50
  IC50: […]

## Cc1cnc(Nc2ccc(OCCN3CCCC3)cc2)nc1Nc1cccc(S(=O)(=O)NC(C)(C)C)c1 [Fedratinib, fedratinib]
MF patients; [9]
  TEAE Anemia, All Gr: 99%
  TEAE Anemia, ≥3 Gr: 43%
  TEAE Neutropenia, All Gr: 28%
  TEAE Neutropenia, ≥3 Gr: 8%
  TEAE Thrombocytopenia, All Gr: 63%
  TEAE Thrombocytopenia, ≥3 Gr: 17%

## C[C@H]1CN(c2c(NC(=O)c3ccc(F)c(-c4c(F)cccc4F)n3)cnc3c2CC[C@H]3O)C[C@@H](N)[C@@H]1O [INCB053914]
PIM2; [6]
  IC50: 30 nM
PIM3; [7]
  IC50: 0.12 nM
R/R AML; [10]
  Hem AE, G3+ anemia: G3+ Anemia (18%)
  Hem AE, G3+ thrombocytopenia: (13%)
  Non-hem AE, ALT/AST increased: (36%),
  Non-hem AE, diarrhea: diarrhea (21%), rash
  Non-hem AE, nausea: nausea (23%),
  Non-hem AE, rash: (15%)
PIM1; [8]
  IC50: 0.24 nM

## CC1(C)CCC(c2ccc(Cl)cc2)=C(CN2CCN(c3ccc(C(=O)NS(=O)(=O)c4ccc(N[C@H](CCN5CCOCC5)CSc5ccccc5)c(S(=O)(=O)C(F)(F)F)c4)cc3)CC2)C1 [Navitoclax, navitoclax]
R/R MF; ≥100 × 10^9/L PLT, monotherapy
  SVR35 at Week 24: 7%
  TSS50 at Week 24: 10%

## C[C@@H]1C[C@H](N)C[C@H](c2ccncc2NC(=O)c2ccc(F)c(-c3c(F)cccc3F)n2)C1 [PIM447]
R/R MM
  Hem AE, G3+ anemia: G3+ anemia (20%),
  Hem AE, G3+ neutropenia: (20%)
  Hem AE, G3+ thrombocytopenia: (33%)
  Non-hem AE, G3+ diarrhea: (6.3%),
  Non-hem AE, pneumonia: pneumonia (7.6%)

## CCOc1c([C@H](C)n2nc(C)c3c(N)ncnc32)cc(Cl)c(F)c1[C@@H]1CNC(=O)C1 [Parsaclisib, parsaclisib]
R/R MF; [11]
  SVR35 at Week 24: 3%
  TSS50 at Week 24: 11%

## Cc1noc2c1-c1ccccc1C(c1ccc(Cl)cc1)=N[C@H]2CC(N)=O [Pelabresib, pelabresib]
R/R MF; ≥75 × 10^9/L PLT, monotherapy
  SVR35 at Week 24: 11%
  TSS50 at Week 24: 28%

## N#CCNC(=O)c1ccc(-c2ccnc(Nc3ccc(N4CCOCC4)cc3)n2)cc1 [momelotinib]
[2]
  IC50: 1600 nM
[3]
  IC50: 260 nM
  concentrations at which myeloid progenitor proliferation was (significantly, additionally) inhibited: 1.0 µM
R/R MF; ≥25 × 10^9/L PLT, monotherapy
  SVR35 at Week 24: 23%
  TSS50 at Week 24: 25%
[4]; single agent
  IC50: 300 nM
MF patients; [12]
  TEAE Anemia, All Gr: 99%
  TEAE Anemia, ≥3 Gr: 61%
  TEAE Neutropenia, All Gr: 29%
  TEAE Neutropenia, ≥3 Gr: 12%
  TEAE Thrombocytopenia, All Gr: 76%
  TEAE Thrombocytopenia, ≥3 Gr: 28%

## C1=C/COCc2cc(ccc2OCCN2CCCC2)Nc2nccc(n2)-c2cccc(c2)COC/1 [pacritinib]
[2]
  IC50: 280 nM
[3]
  IC50: 170 nM
  concentrations at which myeloid progenitor proliferation was (significantly, additionally) inhibited: 0.1 µM
R/R MF; <50 × 10^9/L PLT, monotherapy
  SVR35 at Week 24: 29%
[4]; single agent
  IC50: 340 nM
MF patients; [13]
  TEAE Anemia, All Gr: 24%
  TEAE Anemia, ≥3 Gr: 22%
  TEAE Neutropenia, ≥3 Gr: 7%
  TEAE Thrombocytopenia, All Gr: 34%
  TEAE Thrombocytopenia, ≥3 Gr: 32%

## N#CC[C@H](C1CCCC1)n1cc(-c2ncnc3[nH]ccc23)cn1 [ruxolitinib]
[5]
  relative potency of inhibition of progenitor proliferation: most potent
[2]
  IC50: 110 nM
[3]
  IC50: 100 nM
[4]; single agent
  IC50: 200 nM
[4]; single agent, vs solvent control
  concentrations at which total CFU-Mk was (significantly) inhibited: ≥ 0.033 µM
[4]; single agents compared
  relative potency of inhibition of megakaryocyte progenitors: most potent
MF patients; [14]
  TEAE Anemia, All Gr: 96%
  TEAE Anemia, ≥3 Gr: 45%
  TEAE Neutropenia, All Gr: 19%
  TEAE Neutropenia, ≥3 Gr: 7%
  TEAE Thrombocytopenia, All Gr: 70%
  TEAE Thrombocytopenia, ≥3 Gr: 13%
